This passage reports inhibition results from patent US11629143B2, “HipK4 inhibitors and uses thereof” (Vibliome Therapeutics, LLC, priority 2020, dated 2023).

Assay [1] has as its target T1, EPH-A6 (Homo sapiens, UniProt Q9UF33).
T1 sequence (Q9UF33 23-1036): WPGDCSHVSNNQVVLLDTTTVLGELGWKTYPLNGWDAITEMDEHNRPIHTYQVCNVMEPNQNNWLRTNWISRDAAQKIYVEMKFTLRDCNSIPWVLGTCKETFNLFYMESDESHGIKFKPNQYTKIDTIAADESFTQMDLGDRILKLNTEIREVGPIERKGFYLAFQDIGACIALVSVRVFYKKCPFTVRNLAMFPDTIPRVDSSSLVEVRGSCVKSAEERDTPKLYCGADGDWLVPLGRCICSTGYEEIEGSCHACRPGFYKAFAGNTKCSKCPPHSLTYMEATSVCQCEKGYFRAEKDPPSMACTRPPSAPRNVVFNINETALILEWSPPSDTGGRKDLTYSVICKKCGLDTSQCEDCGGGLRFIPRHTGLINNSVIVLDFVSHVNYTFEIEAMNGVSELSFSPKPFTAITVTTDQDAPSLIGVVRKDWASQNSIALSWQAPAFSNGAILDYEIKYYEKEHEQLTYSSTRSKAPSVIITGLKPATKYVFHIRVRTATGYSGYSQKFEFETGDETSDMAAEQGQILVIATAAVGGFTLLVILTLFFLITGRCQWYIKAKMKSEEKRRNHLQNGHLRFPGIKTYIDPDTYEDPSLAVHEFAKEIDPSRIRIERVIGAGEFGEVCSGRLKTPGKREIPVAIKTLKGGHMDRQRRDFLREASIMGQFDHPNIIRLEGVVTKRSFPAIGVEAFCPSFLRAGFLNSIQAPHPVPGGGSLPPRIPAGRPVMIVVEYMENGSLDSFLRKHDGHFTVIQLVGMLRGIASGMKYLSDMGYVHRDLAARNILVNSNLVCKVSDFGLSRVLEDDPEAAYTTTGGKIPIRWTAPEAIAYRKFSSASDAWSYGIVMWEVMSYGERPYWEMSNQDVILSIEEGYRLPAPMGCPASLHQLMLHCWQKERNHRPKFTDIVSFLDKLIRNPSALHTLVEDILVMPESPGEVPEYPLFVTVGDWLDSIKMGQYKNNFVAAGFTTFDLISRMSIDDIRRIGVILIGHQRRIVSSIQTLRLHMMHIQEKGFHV
Put plainly: Kinase panel (mobility shift). Type of assay: biochemical. The method, then:
(§1) The disclosed compounds were tested for activity against a panel of 299 kinases. The target enzyme was incubated with fluorescently labeled substrate and test compounds in a standardized reaction mixture in 384 well plates. Upon termination of the reaction, samples were introduced onto microfluidic chips. The samples migrated through channels in the chips and product and substrate were separated based on the difference in their charge (electrophoretic mobility shift). Enzyme activity was measured by direct comparison of the fluorescence in the product and substrate peaks. […] In the tables A=95% or greater at 5 um, B=90%-94% at 5 um, and C=80%-89% at 5 um. [note to draft: we included category D for 50-79 and category E is less than 50%. Feel free to remove if not needed)

For assay [2], the target named is T2, AXL (Homo sapiens, UniProt P30530).
T2 sequence (P30530 26-894): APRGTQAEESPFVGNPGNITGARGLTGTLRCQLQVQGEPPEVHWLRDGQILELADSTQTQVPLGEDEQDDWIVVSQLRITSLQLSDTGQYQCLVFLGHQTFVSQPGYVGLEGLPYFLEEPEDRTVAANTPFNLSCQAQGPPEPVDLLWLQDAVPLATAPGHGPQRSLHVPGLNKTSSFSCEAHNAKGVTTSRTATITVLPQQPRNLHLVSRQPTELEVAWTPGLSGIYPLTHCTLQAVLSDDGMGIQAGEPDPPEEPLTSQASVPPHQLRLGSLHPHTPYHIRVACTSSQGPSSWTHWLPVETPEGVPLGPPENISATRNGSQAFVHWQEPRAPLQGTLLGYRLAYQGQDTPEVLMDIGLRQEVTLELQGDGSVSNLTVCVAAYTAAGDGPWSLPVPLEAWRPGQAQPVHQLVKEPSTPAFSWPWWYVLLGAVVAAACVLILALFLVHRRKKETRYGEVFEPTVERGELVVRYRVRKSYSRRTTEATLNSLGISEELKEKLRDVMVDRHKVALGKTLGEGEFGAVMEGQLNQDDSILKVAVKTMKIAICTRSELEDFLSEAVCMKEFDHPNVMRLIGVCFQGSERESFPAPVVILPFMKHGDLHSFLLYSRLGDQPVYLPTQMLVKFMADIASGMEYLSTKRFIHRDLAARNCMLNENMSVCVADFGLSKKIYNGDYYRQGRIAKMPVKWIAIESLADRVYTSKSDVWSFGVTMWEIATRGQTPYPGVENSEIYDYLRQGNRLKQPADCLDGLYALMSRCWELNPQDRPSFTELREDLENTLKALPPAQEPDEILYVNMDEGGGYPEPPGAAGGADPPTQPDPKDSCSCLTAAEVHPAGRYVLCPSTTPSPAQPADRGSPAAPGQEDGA
Kind of assay: Kinase panel (mobility shift). Type of assay: biochemical. The protocol: as §1

A word on the inhibition: it is how much of the control response was suppressed. On to `CSc1nc(C(=O)Nc2ccc(Oc3ccnc(C(=O)NC4CNC4)c3)c(F)c2)c(-c2ccc(F)s2)o1` [Compound 27], for which the inhibition at 5 µM in assay [1] and in assay [2] was under 50% each time.
On to `CSc1nc(C(=O)Nc2ccc(Oc3ccnc(C(=O)NC4COC4)c3)c(F)c2)c(-c2ccc(F)s2)o1` [Compound 28], for which the inhibition at 5 µM in assay [1] and in assay [2] was under 50% in each case.
Turning to `CNC(=O)c1cc(Oc2ccc(NC(=O)c3nc(SC(C)C)oc3-c3ccc(F)cc3)cc2F)ccn1` [Compound 34], the figures for the inhibition at 5 µM in assay [1] and in assay [2] were 90 to 94% and 50 to 79%, respectively.
On the same counts, the results for `[2H]C([2H])([2H])NC(=O)c1cc(Oc2ccc(NC(=O)c3nc(SC)oc3-c3ccc(F)c(F)c3)cc2F)ccn1` [Compound 33] are 50 to 79% and under 50%.
As to `CNC(=O)c1cc(Oc2ccc(NC(=O)c3nc(OC)oc3-c3ccc(F)cc3)cc2F)ccn1` [Compound 15], the figures for the inhibition at 5 µM in assay [1] and in assay [2] were 90 to 94% and 50 to 79%, respectively.
`CNC(=O)c1cc(Oc2ccc(NC(=O)c3nc(NC)sc3-c3ccc(F)cc3C)cc2F)ccn1` [Compound 23]: the inhibition at 5 µM in assay [1] lay in the range of 80 to 89%; in assay [2] it was 50 to 79%.
As for `CNC(=O)c1cc(Oc2ccc(NC(=O)c3nc(SC)oc3-c3ccc(F)cc3Cl)cc2)ccn1` [Compound 3], the values for the inhibition at 5 µM in assay [1] and in assay [2] were 50 to 79% and 80 to 89%, respectively.
With `CSc1nc(C(=O)Nc2ccc(Oc3ccnc(C(=O)NC4COC4)c3)c(F)c2)c(-c2ccc(F)c(F)c2)o1` [Compound 37], the inhibition at 5 µM in assay [1] and in assay [2] was under 50% throughout.
As for `CSc1nc(C(=O)Nc2ccc(Oc3ccnc(C(=O)NC4CNC4)c3)c(F)c2)c(-c2ccc(F)cc2)o1` [Compound 29], the figures for the inhibition at 5 µM in assay [1] and in assay [2] were 80 to 89% and 50 to 79%, respectively.
For the compound `CSc1nc(C(=O)Nc2ccc(Oc3ccnc(-c4cnn(C)c4)c3)c(F)c2)c(-c2ccc(F)cc2)o1` [Compound 11], the inhibition at 5 µM is at least 95% in assay [1] and 90 to 94% in assay [2].
On the same counts, the results for `CNC(=O)c1cc(Oc2ccc(NC(=O)c3nc(OC)oc3-c3ccc(F)s3)cc2F)ccn1` [Compound 25] are 50 to 79% and under 50%.
`CNC(=O)c1cc(Oc2ccc(NC(=O)c3nc(NC)oc3-c3ccc(F)s3)cc2F)ccn1` [Compound 17]: the inhibition at 5 µM in assay [1] and in assay [2] was under 50% each time.
As for `CNC(=O)c1cc(Oc2ccc(NC(=O)c3nc(SC)oc3-c3ccc(F)cc3F)cc2F)ccn1` [Compound 12], the inhibition at 5 µM in assay [1] was in the range of 80 to 89%; in assay [2], 50 to 79%.
Take `CSc1nc(C(=O)Nc2ccc(Oc3ccnc(C(=O)NCCN(C)C)c3)c(F)c2)c(-c2ccc(F)cc2)o1` [Compound 41]: the inhibition at 5 µM in assay [1] is 80 to 89%; in assay [2], under 50%.
On to `CNC(=O)c1cc(Oc2ccc(NC(=O)c3nc(C4CC4)oc3-c3ccc(F)cc3)cc2F)ccn1` [Compound 26], for which the inhibition at 5 µM in assay [1] is 90 to 94%; in assay [2] it was 50 to 79%.
Turning to `CNC(=O)c1cc(Oc2ccc(NC(=O)c3nc(S(C)(=O)=O)sc3-c3ccc(F)cc3)cc2F)ccn1` [Compound 13], the figures for the inhibition at 5 µM in assay [1] and in assay [2] were at least 95% and 80 to 89%, respectively.
For the compound `CNC(=O)c1cc(Oc2ccc(NC(=O)c3nc(COC)oc3-c3ccc(F)cc3)cc2F)ccn1` [Compound 30], the inhibition at 5 µM in assay [1] was at least 95%; in assay [2] it was 50 to 79%.
Consider `CNC(=O)c1cc(Oc2ccc(NC(=O)c3nc(SC)oc3-c3ccc(F)c(F)c3)cc2)ccn1` [Compound 4], for which the values for the inhibition at 5 µM in assay [1] and in assay [2] were 50 to 79% and under 50%, respectively.
In the same order, the values of `CSc1nc(C(=O)Nc2ccc(Oc3ccnc(N)c3Cl)c(F)c2)c(-c2ccc(F)cc2)o1` [Compound 1] are under 50% and under 50%.
On the same counts, the results for `CNC(=O)c1cc(Oc2c(F)cc(NC(=O)c3nc(NC)sc3-c3ccc(F)cc3)cc2F)ccn1` [Compound 19] are 80 to 89% and under 50%.
`CSc1nc(C(=O)Nc2ccc(Oc3ccnc(C(=O)NC4COC4)c3)c(F)c2)c(-c2ccc(F)cc2)o1` [Compound 31]: the values for the inhibition at 5 µM in assay [1] and in assay [2] were 80 to 89% and under 50%, respectively.
Turning to `CNC(=O)c1cc(Oc2ccc(NC(=O)c3nc(SC)oc3-c3ccc(OC)cc3)cc2)ccn1` [Compound 7], the inhibition at 5 µM in assay [1] and in assay [2] was under 50% throughout.
`CSc1nc(C(=O)Nc2ccc(Oc3ccnc(C(=O)NC4CCN(C)CC4)c3)c(F)c2)c(-c2ccc(F)cc2)o1` [Compound 42]: the inhibition at 5 µM in assay [1] was 50 to 79%; in assay [2] it was under 50%.
For `COc1nc(C(=O)Nc2ccc(Oc3ccnc(C(=O)NC4COC4)c3)c(F)c2)c(-c2ccc(F)cc2)o1` [Compound 39], the inhibition at 5 µM was 80 to 89% in assay [1] and under 50% in assay [2].
For the compound `CNC(=O)c1cc(Oc2ccc(NC(=O)c3nc(SC)oc3-c3ccc(F)s3)cc2F)ccn1` [Compound 16], the inhibition at 5 µM in assay [1] is 50 to 79%; in assay [2], under 50%.
In the same order, the values of `COc1nc(C(=O)Nc2ccc(Oc3ccnc(C(=O)NCC(F)(F)F)c3)c(F)c2)c(-c2ccc(F)cc2)o1` [Compound 43] are under 50% and under 50%.
As for `CNC(=O)c1cc(Oc2ccc(NC(=O)c3nc(NC)sc3-c3ccc(F)cc3F)cc2F)ccn1` [Compound 21], the inhibition at 5 µM is 50 to 79% in assay [1] and under 50% in assay [2].
With `CSc1nc(C(=O)Nc2ccc(Oc3ccnc(C(=O)NCC(F)(F)F)c3)c(F)c2)c(-c2ccc(F)cc2)o1` [Compound 40], the inhibition at 5 µM in assay [1] and in assay [2] was under 50% in each case.
Turning to `CNC(=O)c1cc(Oc2ccc(NC(=O)c3nc(OCC(F)(F)F)oc3-c3ccc(F)cc3)cc2F)ccn1` [Compound 38], the inhibition at 5 µM in assay [1] and in assay [2] was 80 to 89% in each case.
Take `CNC(=O)c1cc(Oc2ccc(NC(=O)c3nc(OC4CC4)oc3-c3ccc(F)cc3)cc2F)ccn1` [Compound 32]: the results for the inhibition at 5 µM in assay [1] and in assay [2] were 90 to 94% and 80 to 89%, respectively.
In the same order, the values of `CSc1nc(C(=O)Nc2ccc(Oc3cc4cnn(C)c4cc3Br)c(F)c2)c(-c2ccc(F)cc2)o1` [Compound 2] are 50 to 79% and under 50%.
For the compound `[2H]C([2H])([2H])NC(=O)c1cc(Oc2ccc(NC(=O)c3nc(SC)oc3-c3ccc(F)s3)cc2F)ccn1` [Compound 35], the inhibition at 5 µM was 50 to 79% in assay [1] and under 50% in assay [2].
As for `CNC(=O)c1cc(Oc2ccc(NC(=O)c3nc(OC)oc3-c3ccc(F)c(F)c3)cc2F)ccn1` [Compound 24], the figures for the inhibition at 5 µM in assay [1] and in assay [2] were 50 to 79% and under 50%, respectively.
In the case of `CNC(=O)c1ccc(Oc2ccc(NC(=O)c3nc(Cl)oc3-c3ccc(F)cc3)c(F)c2)cn1` [Compound 36], the results for the inhibition at 5 µM in assay [1] and in assay [2] were 50 to 79% and under 50%, respectively.
